Laboratory results as given in patent publication US11185516B2 (Laboratorios Silanes S.A. DE C.V., priority 2016, dated 2021).

How the values were obtained:
HeLa cells = conditions: 10 mM, 20 h
Procedure: After the incubation, the cells were washed with PBS, collected and washed again, then fixed with methanol:acetone (50:50) for 16 h at −20° C., and stained with 10 μg/mL of propidium iodide, 0.01 mg/mL RNase, 0.01% sodium citrate, for 20 min at 37° C. in darkness. The stained cells were analyzed by flow cytometry using a BD FACS cell sorter and BD FACSuite™ software.

IRS2 knockout mice = conditions: 100 mg/kg/day, 4 weeks
Excerpt: Insulin receptor substrate 2 (IRS2) is a cytoplasmic signaling molecule that mediates effects of insulin, insulin-like growth factor 1, and other cytokines by acting as a molecular adaptor between diverse receptor tyrosine kinases and downstream effectors. Mice lacking IRS2 (e.g., IRS2 knockout mice) have a diabetic phenotype and increased serum leptin levels. Leptin is a hormone made by adipose cells that regulates appetite and inhibits hunger.
The levels of fasting serum leptin, at the beginning and at the end of the treatments, were determined with a kit (Sigma) following the instructions by the manufacturer.

[1] = system: proIL-1β, TNFα, iNOS, IL-6, MCP-1 and IL-12; assay: Inflammation marker expression in palmitate-stimulated L1 adipocytes (RT-qPCR); type: cell-based; conditions: 10 mM, palmitate 500 μM, 24 h
Procedure: Palmitate is a saturated fatty acid that simulates an experimental obese state. It can be used as a pro-inflammatory stimulant for cytokines such as proIL-1β, TNFα, iNOS, IL-6, MCP-1 and IL-12.
Next, the relative expression of inflammation markers was analyzed by RT and qPCR using HPRT-1 as a normalizer and the untreated cell expression levels as a reference (for MCP-1 and IL-12) or those treated palmitate. After the treatments, culture media were collected and subsequently analyzed, cells were washed with PBS, and RNA was extracted (illustra RNAspin Mini, GE Healthcare) and reverse transcribed (High Capacity cDNA Reverse Transcription Kit, Life Technologies). The expression of the genes that were the object of the study was analyzed by qPCR using specific probes (TaqMan® Gene Expression Assays, Life Technologies). The relative expression (RQ), represented in the figure, was calculated by the ΔΔCt method.

C57BL/6 mice = assay: Glycemia and dietary intake in C57BL/6 mice; type: in vivo, mouse; conditions: 1 week
Excerpt: The mean glycemic values at the beginning and end of the experiment are represented for each group (n=3) with their standard deviations.

IRS2−/− (KO) mice = assay: Fasting glycemia and insulinemia in female IRS2−/− mice; type: in vivo, mouse; conditions: 4 weeks
Excerpt: Insulin resistance characterizes type 2 diabetes, obesity, and the metabolic syndrome. Thus, insulin sensitivity is a major therapeutic objective for these metabolic diseases. Insulin receptor substrate (IRS) proteins regulate the physiological actions of insulin upon binding to the receptor. Specific deletion of IRS2 in mice produces diabetes due to a developmental reduction of the pancreatic β-cell mass and the inability of existing β-cells to expand in response to peripheral insulin resistance. Additionally, IRS2-deficiency in mice causes hepatic insulin resistance concurrent with failed suppression of hepatic glucose production. While male IRS2−/− mice often die of diabetic complications by 12 weeks of age, females IRS2−/− mice develop a milder form of diabetes and many live up to 6 months. The observation that female IRS2−/− mice eat more than controls led to the discovery that this molecule is critical for hypothalamic regulation of food intake.
The mean glycemic values are represented per group (n=3) pre-treatment (black bars) and post-treatment (gray bars) along with their standard deviations. […] The fasting serum insulin levels taken pre-treatment (black bars) and post-treatment (gray bars) were determined using a kit (Millipore), following the manufacturer's instructions. Mean values and standard deviations are presented for each group (n=3) (FIG. 12D).
Due to peripheral resistance to insulin, the IRS2−/− mice also develop hyperinsulinemia.

GPBP and AKT = GPBP and AKT (Homo sapiens, UniProt Q9Y5P4); conditions: 5 mM
Procedure: Two hundred nanograms of AS160 (Origene Technologies) was incubated either in the absence (−) or in the presence (+) of FLAG-GPBP (270 ng), AKT (Millipore) (200 ng) and SLN1 or SLN2 (5 mM) in phosphorylation solution (β-glycerophosphate 25 mM (pH 7.0), EDTA 0.5 mM, EGTA 0.5 mM, MgCl2 8 mM, MnCl2 5 mM, DTT 1 mM) without ATP for 10 min at RT, after which [γ-^32P] ATP (Perkin Elmer) (0.132 μM) and ATP (Sigma) (100 μM) were added. Reaction cocktails (25 μl) were incubated at 30° C. for 15 min, and stirred (350 rpm).

GLUT4 = GLUT4 translocation (FIG. 19A)
[2] = system: IRS2 knockout mice (KO IRS2); assay: Body weight in IRS2 knockout mice; type: in vivo, mouse; conditions: 100 mg/kg/day, 8 weeks
Procedure: Body weight of the mice was measured prior to the onset of treatment, at 4 weeks after treatment, and at 8 weeks after treatment. There were 8 mice in each group at the pre-treatment and 4-week treatment time points. […] Statistical differences between the experimental groups shown in FIG. 20 were assessed by Student's T test. P value of <0.05 is indicated by *.

[3] = system: IRS2 knockout mice (KO IRS2); assay: Serum triglycerides in IRS2 knockout mice; type: in vivo, mouse; conditions: 100 mg/kg/day, 8 weeks, fasting
Procedure: At the 8-week treatment time point, there were 8 mice in each of the WT groups, 6 mice in the KO IRS2 untreated control group, 7 mice in the KO IRS2 SLN1 treated group, and 8 mice in the KO SLN2 treated group. Blood was collected at the time of sacrifice and used to measure TG under fasting conditions. […] Statistical differences between the experimental groups shown in FIG. 21 were assessed by Student's T test. P value of <0.05 is indicated by *.

GPBP = GPBP (Homo sapiens, UniProt Q9Y5P4); conditions: 1 mM, FIG. 6A
[4] = 2:1 complex (2 molecules of metformin for 1 of glycine), aqueous solution
clinical = conditions: both, human, in vivo, oral, 1240 mg, tmax, median [minimum-maximum], 1240 mg single administration without food

GPBP and AKT, sequence (Q9Y5P4 whole entry): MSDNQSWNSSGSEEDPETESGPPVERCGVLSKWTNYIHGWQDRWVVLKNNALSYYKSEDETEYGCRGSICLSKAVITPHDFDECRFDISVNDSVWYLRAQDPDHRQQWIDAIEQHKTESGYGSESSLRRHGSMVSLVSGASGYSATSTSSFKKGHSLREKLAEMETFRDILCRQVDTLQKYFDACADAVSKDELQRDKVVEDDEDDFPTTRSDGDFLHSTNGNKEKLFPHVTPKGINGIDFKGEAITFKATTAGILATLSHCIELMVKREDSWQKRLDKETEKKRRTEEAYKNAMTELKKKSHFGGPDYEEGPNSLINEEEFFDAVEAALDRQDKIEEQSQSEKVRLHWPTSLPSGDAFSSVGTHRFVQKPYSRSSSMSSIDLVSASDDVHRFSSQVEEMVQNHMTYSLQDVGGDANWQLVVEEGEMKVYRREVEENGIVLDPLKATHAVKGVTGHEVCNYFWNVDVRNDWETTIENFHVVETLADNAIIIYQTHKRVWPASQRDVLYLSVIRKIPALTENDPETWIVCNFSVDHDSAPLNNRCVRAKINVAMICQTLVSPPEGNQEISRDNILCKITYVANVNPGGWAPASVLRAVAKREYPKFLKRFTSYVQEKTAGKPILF
GPBP, sequence (Q9Y5P4 whole entry): as above

CN(C)C(=N)NC(=N)N [Metformin glycinate, N,N-dimethylimidodicarbonimidic diamide glycinate]
cancer cells entering G1 phase cell cycle arrest (HeLa cells): about 56%
reduction of fasting serum leptin levels compared to metformin hydrochloride (IRS2 knockout mice): greater reduction of fasting serum leptin levels
fasting serum leptin levels (IRS2 knockout mice; end vs beginning of treatment): reduced fasting serum leptin levels
anti-inflammatory effectiveness, comparison of the two salts [1]: significantly more effective than metformin hydrochloride
inflammatory response of palmitate-stimulated adipocytes [1]: attenuated the inflammatory response
glycemia, end vs beginning (C57BL/6 mice; 100 mg/kg/day mixed with solid food, n=3): significantly reduced glycemia
extent of glycemia reduction compared to metformin hydrochloride (C57BL/6 mice; 100 mg/kg/day): to a greater extent
food intake compared to untreated mice (C57BL/6 mice; 100 mg/kg/day): food intake was greater
fasting glycemia post-treatment (IRS2−/− (KO) mice; 100 mg/kg/day with food, 10-12 weeks old): significantly lower than those pre-treatments
fasting insulin levels (IRS2−/− (KO) mice; 100 mg/kg/day): lowered the fasting insulin levels
GPBP and AKT cross activation (GPBP and AKT): counteracted GPBP and AKT cross activation
GLUT4 translocation (GLUT4): translocated GLUT4
average body weight, post- vs pre-treatment [2]: significantly lower after 8 weeks than before treatment
serum triglycerides compared to untreated KO IRS2 [3]: lower
Tmax, comparative analysis (620 mg BID vs metformin hydrochloride 1000 mg BID): statistically significant differences
bioequivalence (90% C.I. in magnitude and velocity) (620 mg against metformin hydrochloride 500 mg): within the theoretical ranges of bioequivalence
pharmacokinetic parameters of test vs reference (metformin hydrochloride) (Stage B, multiple doses): similar
GPBP auto-phosphorylation activity (GPBP): inhibition of GPBP auto-phosphorylation activity
complexation constant [4]: 712±19
Tmax (clinical): 1.5 h
